Experimental findings from patent US12662479B2 (Foghorn Therapeutics Inc., priority 2020, dated 2026) are described below.

Molecules are shown by their SMILES.

Experiment [1] deals with T1, HiBit-BRM fusion protein (Homo sapiens, UniProt P51531).
T1 construct: expressed in transfected cells
The experiment can be described thus: HiBiT-BRM cell-based degradation assay (Nano-Glo HiBiT Lytic Detection, 24 h). Conditions: HeLa cells expressing HiBiT-BRM; for DC50: read-out: BRM HiBit Degradation IC50; for BRM HiBit Degradation Maximum measured: top dose 30 μM. In a few lines: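 Stable HiBiT-BRM HeLa line; 24 h compound exposure, top final 30 μM, 3-fold, 10 pts in duplicate. Lytic HiBiT/LgBiT luminescence readout. % degradation vs DMSO (0%) and 2 μM known BRM/BRG1 degrader (100%).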

Experiment [2] addresses T2, HiBit-BRG1 fusion protein (Homo sapiens, UniProt P51532).
T2 construct: expressed in transfected cells
Kind of experiment: HiBiT-BRG1 cell-based degradation assay (Nano-Glo HiBiT Lytic Detection, 24 h). As to conditions: HeLa cells expressing HiBit-BRG1 and LgBit; for DC50: read-out: BRG1 HiBit Degradation IC50; for Dmax: HeLa, top dose 30 μM, read-out: BRG1 HiBit Degradation Maximum measured. The procedure, abridged:
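Degradation is scaled from DMSO-treated cells (0%) to cells given 2 μM of a known BRM/BRG1 degrader (100%). HeLa cells stably carrying HiBiT-BRG1 plus LgBiT (5000/well) were lysed with Nano-Glo HiBiT detection reagent, shaken 10 min at RT, and luminescence read.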

T1 sequence (P51531 whole entry, the tested form may be a part): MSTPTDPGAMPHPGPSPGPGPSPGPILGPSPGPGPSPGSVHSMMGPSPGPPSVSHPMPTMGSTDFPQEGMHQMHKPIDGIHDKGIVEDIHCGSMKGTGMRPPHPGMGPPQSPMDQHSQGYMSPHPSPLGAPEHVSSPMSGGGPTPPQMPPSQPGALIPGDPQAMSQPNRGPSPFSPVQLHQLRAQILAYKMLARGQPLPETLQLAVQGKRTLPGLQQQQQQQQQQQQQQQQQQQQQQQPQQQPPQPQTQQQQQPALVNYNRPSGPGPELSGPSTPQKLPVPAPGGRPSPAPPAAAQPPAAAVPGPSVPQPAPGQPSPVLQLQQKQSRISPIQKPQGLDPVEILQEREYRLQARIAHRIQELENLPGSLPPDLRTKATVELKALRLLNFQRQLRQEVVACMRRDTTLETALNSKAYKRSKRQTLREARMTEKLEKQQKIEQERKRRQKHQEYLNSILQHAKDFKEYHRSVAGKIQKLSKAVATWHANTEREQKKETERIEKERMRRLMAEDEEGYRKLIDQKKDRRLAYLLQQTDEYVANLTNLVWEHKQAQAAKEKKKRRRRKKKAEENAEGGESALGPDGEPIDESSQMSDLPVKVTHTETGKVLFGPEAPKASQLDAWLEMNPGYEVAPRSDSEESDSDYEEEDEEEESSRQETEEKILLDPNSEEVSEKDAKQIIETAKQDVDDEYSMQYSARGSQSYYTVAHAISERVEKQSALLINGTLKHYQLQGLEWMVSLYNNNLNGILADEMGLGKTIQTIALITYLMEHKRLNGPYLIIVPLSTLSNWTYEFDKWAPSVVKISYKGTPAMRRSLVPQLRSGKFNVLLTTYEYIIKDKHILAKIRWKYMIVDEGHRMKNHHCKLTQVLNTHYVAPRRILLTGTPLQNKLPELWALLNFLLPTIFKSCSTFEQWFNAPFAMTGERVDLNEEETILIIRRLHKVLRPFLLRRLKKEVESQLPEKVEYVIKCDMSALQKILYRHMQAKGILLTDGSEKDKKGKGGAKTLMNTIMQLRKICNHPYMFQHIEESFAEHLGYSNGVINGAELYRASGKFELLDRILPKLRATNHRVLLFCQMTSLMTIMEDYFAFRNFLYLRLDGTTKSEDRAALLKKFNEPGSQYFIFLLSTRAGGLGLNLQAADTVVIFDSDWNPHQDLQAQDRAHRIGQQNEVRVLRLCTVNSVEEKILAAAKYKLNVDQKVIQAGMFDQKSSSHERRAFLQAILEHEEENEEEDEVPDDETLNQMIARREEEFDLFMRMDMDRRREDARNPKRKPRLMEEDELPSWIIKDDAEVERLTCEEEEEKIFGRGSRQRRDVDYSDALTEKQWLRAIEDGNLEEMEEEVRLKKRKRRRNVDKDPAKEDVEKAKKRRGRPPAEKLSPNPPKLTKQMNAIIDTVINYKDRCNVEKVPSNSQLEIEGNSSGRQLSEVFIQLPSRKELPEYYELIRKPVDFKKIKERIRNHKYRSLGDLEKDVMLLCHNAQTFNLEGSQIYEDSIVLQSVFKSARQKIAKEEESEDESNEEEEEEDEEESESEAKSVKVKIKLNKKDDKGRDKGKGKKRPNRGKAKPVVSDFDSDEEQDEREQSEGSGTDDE
T2 sequence (P51532 whole entry, the tested form may be a part): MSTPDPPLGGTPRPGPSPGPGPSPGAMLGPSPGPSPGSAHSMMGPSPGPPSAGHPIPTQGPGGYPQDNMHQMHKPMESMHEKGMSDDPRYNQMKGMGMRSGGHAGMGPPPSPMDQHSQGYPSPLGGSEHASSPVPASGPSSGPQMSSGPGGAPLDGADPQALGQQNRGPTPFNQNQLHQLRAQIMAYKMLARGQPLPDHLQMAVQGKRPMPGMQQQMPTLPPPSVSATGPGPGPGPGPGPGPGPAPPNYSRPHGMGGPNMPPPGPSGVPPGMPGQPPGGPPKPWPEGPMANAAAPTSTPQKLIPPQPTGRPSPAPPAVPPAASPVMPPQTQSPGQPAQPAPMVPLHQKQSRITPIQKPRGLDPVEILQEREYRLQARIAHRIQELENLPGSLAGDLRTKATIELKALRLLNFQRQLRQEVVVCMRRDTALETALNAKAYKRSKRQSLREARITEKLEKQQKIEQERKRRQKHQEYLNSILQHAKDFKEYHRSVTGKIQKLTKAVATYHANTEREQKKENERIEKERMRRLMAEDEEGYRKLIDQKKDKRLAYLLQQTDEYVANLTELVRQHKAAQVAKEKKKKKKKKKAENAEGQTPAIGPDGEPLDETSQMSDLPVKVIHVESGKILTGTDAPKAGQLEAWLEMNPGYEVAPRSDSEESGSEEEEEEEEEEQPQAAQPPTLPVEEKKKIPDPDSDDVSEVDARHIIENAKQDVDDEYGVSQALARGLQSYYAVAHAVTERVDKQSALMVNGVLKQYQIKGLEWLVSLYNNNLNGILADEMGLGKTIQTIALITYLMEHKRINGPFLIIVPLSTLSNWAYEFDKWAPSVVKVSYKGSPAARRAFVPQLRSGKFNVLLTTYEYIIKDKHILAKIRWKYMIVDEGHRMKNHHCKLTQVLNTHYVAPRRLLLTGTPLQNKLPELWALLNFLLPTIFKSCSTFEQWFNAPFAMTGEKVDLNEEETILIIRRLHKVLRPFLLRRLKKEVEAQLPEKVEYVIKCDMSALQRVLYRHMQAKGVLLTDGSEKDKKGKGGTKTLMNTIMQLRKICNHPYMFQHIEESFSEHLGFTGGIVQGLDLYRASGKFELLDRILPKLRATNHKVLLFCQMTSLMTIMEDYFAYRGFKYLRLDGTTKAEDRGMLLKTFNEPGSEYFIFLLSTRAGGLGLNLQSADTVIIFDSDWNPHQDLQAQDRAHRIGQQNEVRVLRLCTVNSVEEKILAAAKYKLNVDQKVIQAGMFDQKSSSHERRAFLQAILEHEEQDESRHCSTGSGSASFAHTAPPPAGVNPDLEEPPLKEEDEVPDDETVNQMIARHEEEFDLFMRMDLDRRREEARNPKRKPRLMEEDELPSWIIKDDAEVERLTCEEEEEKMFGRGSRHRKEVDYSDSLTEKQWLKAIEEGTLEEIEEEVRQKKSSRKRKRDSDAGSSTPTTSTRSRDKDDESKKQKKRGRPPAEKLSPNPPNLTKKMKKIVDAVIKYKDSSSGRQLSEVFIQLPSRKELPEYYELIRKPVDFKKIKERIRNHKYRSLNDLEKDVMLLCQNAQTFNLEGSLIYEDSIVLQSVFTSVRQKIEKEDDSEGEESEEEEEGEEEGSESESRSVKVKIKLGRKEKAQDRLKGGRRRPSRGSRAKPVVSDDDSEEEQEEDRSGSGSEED

Consider `CS(=O)(=O)n1ccc(C(=O)NCC(=O)Nc2nc(-c3cccc(-c4ccnc(C5(C(=O)NCCCCCCNc6ccc7c(c6)CN(C6CCC(=O)NC6=O)C7=O)CC5)c4)c3)cs2)c1` (stereo not drawn) [Compound 53, N-(6-[[2-(2,6-dioxopiperidin-3-yl)-1-oxo-3H-isoindol-5-yl]amino]hexyl)-1-[4-[3-(2-[2-[(1-methanesulfonylpyrrol-3-yl)formamido]acetamido]-1,3-thiazol-4-yl)phenyl]pyridin-2-yl]cyclopropane-1-carboxamide], for which, in experiment [1], the DC50 is less than 0.1 µM and the “BRM HiBit Degradation Maximum measured” value is “A (‘A’ = Maximum degradation >75%)”. Moreover, in experiment [2], the DC50 is less than 0.1 µM and the Dmax is more than 75%.
For `CS(=O)(=O)n1ccc(C(=O)NCC(=O)Nc2nc(-c3cccc(-c4cccc(CNC(=O)CCCCOc5cccc6c5C(=O)N(C5CCC(=O)NC5=O)C6=O)c4)c3)cs2)c1` (stereo not drawn) [Compound 57, N-(2-((4-(3′-((5-((2-(2,6-dioxopiperidin-3-yl)-1,3-dioxoisoindolin-4-yl)oxy)pentanamido)methyl)-[1,1′-biphenyl]-3-yl)thiazol-2-yl)amino)-2-oxoethyl)-1-(methylsulfonyl)-1H-pyrrole-3-carboxamide], in experiment [1], the DC50 was more than 10 µM and the “BRM HiBit Degradation Maximum measured” value is “C (‘C’ = Maximum degradation <50%)”. In experiment [2], the DC50 is more than 10 µM and the Dmax is less than 50%.
For `CS(=O)(=O)n1ccc(C(=O)NCC(=O)Nc2nc(-c3cccc(-c4ccnc(C5(C(=O)N6CCC(C7CCN(C(=O)COc8cccc9c8C(=O)N(C8CCC(=O)NC8=O)C9=O)CC7)CC6)CC5)c4)c3)cs2)c1` (stereo not drawn) [Compound 14, N-(2-((4-(3-(2-(1-(1′-(2-((2-(2,6-dioxopiperidin-3-yl)-1,3-dioxoisoindolin-4-yl)oxy)acetyl)-[4,4′-bipiperidine]-1-carbonyl)cyclopropyl)pyridin-4-yl)phenyl)thiazol-2-yl)amino)-2-oxoethyl)-1-(methylsulfonyl)-1H-pyrrole-3-carboxamide], in experiment [1], the DC50 was more than 10 µM and the “BRM HiBit Degradation Maximum measured” value is listed as “C (‘C’ = Maximum degradation <50%)”. Besides, in experiment [2], the DC50 was more than 10 µM and the Dmax was less than 50%.
With `CS(=O)(=O)n1ccc(C(=O)N[C@@H](COCCCC(=O)NCCCCCNc2ccc3c(c2)C(=O)N(C2CCC(=O)NC2=O)C3=O)C(=O)Nc2nc(-c3ccccc3)cs2)c1` (stereo partly drawn) [Compound 187, N-(5-[[2-(2,6-dioxopiperidin-3-yl)-1,3-dioxoisoindol-5-yl]amino]pentyl)-4-[(2S)-2-[(1-methanesulfonylpyrrol-3-yl)formamido]-2-[(4-phenyl-1,3-thiazol-2-yl)carbamoyl]ethoxy]butanamide], in experiment [1], the DC50 was more than 10 µM and the “BRM HiBit Degradation Maximum measured” value was “C (‘C’ = Maximum degradation <50%)”. Also, in experiment [2], the DC50 is more than 10 µM and the Dmax was less than 50%.
Consider `CS(=O)(=O)n1ccc(C(=O)N[C@@H](COCCCC(=O)NCCNc2ccc3c(c2)C(=O)N(C2CCC(=O)NC2=O)C3=O)C(=O)Nc2nc(-c3ccccc3)cs2)c1` (stereo partly drawn) [Compound 185, N-((2S)-3-(4-((2-((2-(2,6-dioxopiperidin-3-yl)-1,3-dioxoisoindolin-5-yl)amino)ethyl)amino)-4-oxobutoxy)-1-oxo-1-((4-phenylthiazol-2-yl)amino)propan-2-yl)-1-(methylsulfonyl)-1H-pyrrole-3-carboxamide], for which, in experiment [1], the DC50 was more than 10 µM and the “BRM HiBit Degradation Maximum measured” value was “C (‘C’ = Maximum degradation <50%)”. In addition, in experiment [2], the DC50 was more than 10 µM and the Dmax is less than 50%.
In the case of `CS(=O)(=O)n1ccc(C(=O)N[C@@H](COCCCC(=O)NCCCCNc2ccc3c(c2)C(=O)N(C2CCC(=O)NC2=O)C3=O)C(=O)Nc2nc(-c3ccccc3)cs2)c1` (stereo partly drawn) [Compound 229, N-(4-[[2-(2,6-dioxopiperidin-3-yl)-1,3-dioxoisoindol-5-yl]amino]butyl)-4-[(2S)-2-[(1-methanesulfonylpyrrol-3-yl)formamido]-2-[(4-phenyl-1,3-thiazol-2-yl)carbamoyl]ethoxy]butanamide], in experiment [1], the DC50 was more than 10 µM and the “BRM HiBit Degradation Maximum measured” value is recorded as “C (‘C’ = Maximum degradation <50%)”. Also, in experiment [2], the DC50 was more than 10 µM and the Dmax was less than 50%.
